Test [1] has as its system calcium channel binding site for [^3 H]-Nitrendipine (rat brain membranes). Nature of the test: [^3 H]-Nitrendipine binding to rat brain membranes. Further details: species or system rat (male Wistar). Particulars: Table 1a; for Specifically bound [^3 H]-Nitrendipine % of control value: compound concentration 1.0 μM; for Bound ^3 H at 1.0 μM / Bound ^3 H at 0.1 μM: ratio of [^3 H]-Nitrendipine bound at 1.0 and 0.1 μM compound. Summed up:
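Cerebral cortex membranes from male Wistar rats (400 μg protein/tube) were incubated with [3H]-nitrendipine and compounds in 50 mM Tris-HCl pH 7.4/150 mM NaCl/1 mM CaCl2 under subdued light, ethanol ≤0.1%. Bound radioligand was collected by GF/B filtration and counted; data are percent specific binding versus control, with compounds judged at 1.0 μM final.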

For test [2], the system named is rat trachea contraction induced by KCl depolarization. The experiment in a line: KCl-induced rat trachea contraction. Further details: species or system rat (male SHR, Okamoto-Aoki). Particulars: for activity at 1 µM: Rattus norvegicus, 40 min, read-out: Contraction (% max.); for activity on KCl-induced trachea contraction (in words): final concentration 1.0 μM. Summed up: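 Spiral trachea strips from male SHR rats were held in Krebs-Ringer (pH 7.4, 95/5 O2/CO2, 37±1° C) under 1.5–2 g tension, and contraction was measured isometrically. After a 65 mM KCl plateau, drugs (1.0 μM final) were added. Residual contraction at 40 min was expressed as % of the initial KCl response.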

The subject of test [3] is isolated rat atrium (atrium rate). The experiment in a line: Chronotropic activity in isolated rat atrium. Also noted: species or system rat (male SHR, Okamoto-Aoki). Particulars: 5.0 × 10^-6 M, mean ± SEM, read-out: Decrease in atrium rate (% pretest). How it is done:
Spontaneously hypertensive male rats (SHR) (Okamoto-Aoki strain) were anesthetized with Pentobarbital (Nembutal Abbott, 60 mg/kg, i.p.). The hearts were quickly excised and both atria were dissected free from adjacent cardiac tissues. The atria were immediatly placed in a 50 ml Krebs-Ringer bath with the following composition (mM): NaCl, (120.0); KCl, (5.63); CaCl2, (2.0); MgCl2, (2.10); NaHCO3, (25.0); Glucose, (9.7) (pH 7.4). The solution was continuously bubbled with a O2 /CO2 mixture (95/5) and maintained at 37±1° C. The atrium was fixed to an optical displacement transducer (IITC, USA) under a resting tension of 1 g in order to measure atrial rate. The preparation was allowed to equilibrate for 40 min then cumulative dose-response curves were determined for each test compound (0.5-5 μMole/l). Maximum effect was normally obtained within 30-40 min. for each concentration.
Stock solutions of the 1,3-diphosphonates were generally prepared in 0.9% saline and water insoluble compounds were prepared in 50% ethanol. […] When tested at the concentration of 5.0×10^-6 M a decrease in atrium rate of more than 5% was considered as significant.
All data are presented as % decrease of initial atrium rate (mean values±SEM). A potent negative chronotropic effect was found with all compounds tested (table 3).

Test [4] deals with mean blood pressure in rat. The experiment in a line: Acute intravenous hypotensive activity in anesthetized rats. The conditions noted are these: for hypotensive activity (in words): acute i.v., Table 4. The class given is in vivo, rat (male Wistar). How it is done:
Male Wistar rats were anesthetized with Pentobarbital (Nembutal, 60 mg/kg i.p.) and heparinized (5 mg/kg i.p.). After tracheotomy the right carotid was cannulated (catheter PE 50); blood pressure was measured with a pressure transducer (Statham P 23 db) and recorded on a polygraph (Beckman).
Animals received 0.5 and 1.5 mg/kg of the test compounds. Less than 100 μl of test compounds dissolved in 0.9% saline were injected in the jugular vein. Highly water insoluble compounds were suspended in 2% Tween-80. Injection of the vehicle alone had no detectable hypotensive effect.
Results presented are expressed as percent decrease in initial mean blood pressure (Mean±SEM).

Test [5] relates to drug receptor sites associated with calcium channels. The conditions noted are these: known calcium antagonists; cited from earlier work.
The subject of test [6] is slow inward current of the action potential. Particulars: classical calcium antagonists; cited from earlier work.
The mark [7] stands for this setting: Rattus norvegicus, iv, read-out: Decrease in mean blood pressure (% pretest).

Entries after “also recorded” stand apart in the source; their conditions may differ.

Regarding `CC(C)OP(=O)(CC(Cc1ccccc1)CP(=O)(OC(C)C)OC(C)C)OC(C)C` [Compound 55, Tetraisopropyl 2-benzyl-1,3-propylidenephosphonate], in test [1], the “modulation of [^3 H]-Nitrendipine binding (in words)” value (from here on “modulation”) was “activators”, the “Specifically bound [^3 H]-Nitrendipine % of control value” is given as 156 % of control value and the “Bound ^3 H at 1.0 μM / Bound ^3 H at 0.1 μM” value was 1.292. In addition, in test [2], the activity at 1 µM was 73 ± 1% and the “activity on KCl-induced trachea contraction (in words)” value was “potent pharmacological activity”. The inhibition at 5 µM in test [3] worked out at 17.5 ± 4.6%. Further, in test [4] (setting [7]), the inhibition in vivo at 0.5 mg/kg was 28.2 ± 0.7% and the inhibition in vivo at 1.5 mg/kg turned out to be 31.1 ± 6.4%.
Take `CCCCOP(=O)(CC(Cc1ccccc1)CP(=O)(OCCCC)OCCCC)OCCCC` [Compound 73, Tetrabutyl 2-benzyl-1,3-propylidenediphosphonate]: in test [1], the “modulation” value is listed as “strong inhibitors”, the “Specifically bound [^3 H]-Nitrendipine % of control value” was 81 % of control value and the “Bound ^3 H at 1.0 μM / Bound ^3 H at 0.1 μM” value is on record as 0.862. Also, in test [2], the activity at 1 µM turned out to be 46.2 ± 1.8% and the “activity on KCl-induced trachea contraction (in words)” value was “potent pharmacological activity”. In test [3], the inhibition at 5 µM stood at 18.8 ± 11.2%. Moreover, the inhibition in vivo at 0.5 mg/kg in test [4] (setting [7]) came to 50 ± 3.8%. Also, the “hypotensive activity (in words)” value in test [4] was “hypotensive activity superior to that of classical hypotensive drugs and of the calcium antagonists used as references”.
`CCCCOP(=O)(CC(CCc1ccccc1)CP(=O)(OCCCC)OCCCC)OCCCC` [Compound 74]: in test [1], the “Specifically bound [^3 H]-Nitrendipine % of control value” is 17 % of control value and the “Bound ^3 H at 1.0 μM / Bound ^3 H at 0.1 μM” value amounted to 0.380. In test [2], the activity at 1 µM amounted to 35 ± 1.2% and the “activity on KCl-induced trachea contraction (in words)” value is on record as “potent pharmacological activity”. Moreover, the inhibition at 5 µM in test [3] was 8.3 ± 4.5%. Besides, the inhibition in vivo at 0.5 mg/kg in test [4] (setting [7]) was 50.8 ± 2.7%. The “hypotensive activity (in words)” value in test [4] is “hypotensive activity superior to that of classical hypotensive drugs and of the calcium antagonists used as references”.
On to `CCCCOP(=O)(CC(CCCc1ccccc1)CP(=O)(OCCCC)OCCCC)OCCCC` [Compound 75, Tetrabutyl 2-(3-phenylpropyl)-1,3-propylidenediphosphonate], for which, in test [1], the “modulation” value is on record as “strong inhibitors”, the “Specifically bound [^3 H]-Nitrendipine % of control value” was 22 % of control value and the “Bound ^3 H at 1.0 μM / Bound ^3 H at 0.1 μM” value came out at 0.354. Moreover, in test [2], the activity at 1 µM was 70 ± 3% and the “activity on KCl-induced trachea contraction (in words)” value is on record as “potent pharmacological activity”. The inhibition at 5 µM in test [3] was 14.8 ± 4.8%. For the same compound, the inhibition in vivo at 0.5 mg/kg in test [4] (setting [7]) turned out to be 22.8 ± 1.6%.
Take `CCCCOP(=O)(CC(Cc1cccc2ccccc12)CP(=O)(OCCCC)OCCCC)OCCCC` [Compound 83]: in test [1], the “modulation” value is “strong inhibitors”, the “Specifically bound [^3 H]-Nitrendipine % of control value” is listed as 36 % of control value and the “Bound ^3 H at 1.0 μM / Bound ^3 H at 0.1 μM” value was found to be 0.548. In test [2], the activity at 1 µM stood at 62.5 ± 11.5% and the “activity on KCl-induced trachea contraction (in words)” value is listed as “potent pharmacological activity”. In addition, in test [3], the inhibition at 5 µM was found to be 4.4 ± 0.6%. The inhibition in vivo at 0.5 mg/kg in test [4] (setting [7]) was found to be 10.6 ± 0.5%.
With `COc1ccc([C@@H]2Sc3ccccc3N(CCN(C)C)C(=O)[C@@H]2OC(C)=O)cc1` [Diltiazem], the “effect on [^3 H]-Nitrendipine binding (in words)” value in test [5] was “stimulators; also recorded: enhances [^3 H]Nitrendipine binding”. Further, in test [6], the “inhibition of slow inward current (in words)” value was “inhibit with very high specificity the slow inward current of the action potential”. Also, in test [4] (Rattus norvegicus, iv, 1.0 mg/kg, known hypotensive drugs, mean ± SEM, read-out: Decrease in mean blood pressure (% pretest)), the inhibition in vivo at 1 mg/kg came out at 47.9%.
Take `COC(=O)C1=C(C)NC(C)=C(C(=O)OC)C1c1ccccc1[N+](=O)[O-]` [Nifedipine]: the “inhibition of slow inward current (in words)” value in test [6] is “inhibit with very high specificity the slow inward current of the action potential”.

The record behind these values is patent publication US4696920A, “Certain 2-substituted 1,3-propylidenediphosphonate derivatives, pharmaceutical compositions containing them and their use as antihypertensive agents” (priority 1984, dated 1987).
